Source: PubChem BioAssay AID1602 (NINDS Approved Drug Screening Program, 2009)
Records with an inconclusive call do not appear. Peptide text beside a SMILES is read from it.

Each compound was assayed on mutant SOD1 toxicity cell model, protection read-out (assay: cell protection against mutant SOD1 damage (AID 1602)).

Q: With `CCN1CCN(C(=O)NC(C(=O)NC2C(=O)N3C(C(=O)O)=C(CSc4nnnn4C)CSC23)c2ccc(O)cc2)C(=O)C1=O` (centres undefined) as the compound, how does the EC50 read?
A: 50 µM

Q: `CO/N=C(/C(=O)NC1C(=O)N2C(C(=O)O)=C(COC(N)=O)CSC12)c1ccco1` (centres undefined) was tested. Which EC50 did it give?
A: 50 µM

Q: Which EC50 does the source give for `CC(COc1ccccc1)NC(C)[C@H](O)c1ccc(O)cc1` (some centres undefined) here?
A: 50 µM

Q: `CC[N+]1(C)CCCC(OC(=O)C(O)(c2ccccc2)c2ccccc2)C1` (centres undefined) was tested. Which EC50 did it give?
A: 50 µM

Q: How did the EC50 turn out when `Nc1ccc(S(N)(=O)=O)cc1` was run?
A: 50 µM

Q: Which EC50 does the source give for `CC(C)CC1NC(=O)CNC1=O` (centres undefined) here?
A: 50 µM

Q: Which EC50 does the source give for `NC(N)=NC(N)=Nc1ccccc1` here?
A: 50 µM

Q: For `CN[C@H](CC(=O)O)C(=O)O`, which EC50 is on record?
A: 50 µM

Q: For `CN1C2CCC1CC(OC(=O)C(CO)c1ccccc1)C2` (centres undefined), which EC50 is on record?
A: 50 µM

Q: For `CNCCc1ccccn1`, which EC50 is on record?
A: 50 µM

Q: Which EC50 does the source give for `NC[C@@H]1O[C@H](O[C@@H]2[C@@H](CO)OC(O[C@@H]3[C@@H](O)[C@H](N)C[C@H](N)[C@H]3OC3O[C@H](CN)[C@@H](O)[C@H](O)[C@H]3N)[C@@H]2O)[C@H](N)[C@@H](O)[C@@H]1O` (some centres undefined) here?
A: 50 µM

Q: Which EC50 does the source give for `Nc1ccc(S(=O)(=O)Nc2nccs2)cc1` here?
A: 50 µM

Q: For `COc1c2occc2c(OC)c2c(=O)cc(C)oc12`, which EC50 is on record?
A: 75 µM

Q: `CC(=O)OCC1=C(C(=O)O)N2C(=O)[C@@H](NC(=O)CSc3ccncc3)[C@H]2SC1` was tested. Which EC50 did it give?
A: 50 µM

Q: How did the EC50 turn out when `COC(=O)C1[C@H]2C[C@H]3c4[nH]c5ccccc5c4CCN3C[C@@H]2CC[C@@H]1O` (some centres undefined) was run?
A: 50 µM

Q: With `NCCCC(=O)O` as the compound, how does the EC50 read?
A: 50 µM

Q: For `C[C@H](CCC(=O)O)[C@H]1CCC2C3C(=O)CC4CC(=O)CC[C@]4(C)C3CC(=O)[C@@]21C` (some centres undefined), which EC50 is on record?
A: 50 µM

Q: Which EC50 does the source give for `CN(C)CCOC(=O)C(c1ccccc1)C1(O)CCCC1` (centres undefined) here?
A: 50 µM

Q: With `CC(C(=O)O)c1cccc(C(=O)c2ccccc2)c1` (centres undefined) as the compound, how does the EC50 read?
A: 75 µM

Q: For `C[C@H](CS)C(=O)N1CCC[C@H]1C(=O)O`, which EC50 is on record?
A: 75 µM

Q: `CC(=O)Nc1cc([As](=O)(O)O)ccc1O` was tested. Which EC50 did it give?
A: 50 µM

Q: For `CC(=O)N[C@@H](CS)C(=O)O`, which EC50 is on record?
A: 50 µM

Q: Which EC50 does the source give for `CC(CCc1ccccc1)NCC(O)c1ccc(O)c(C(N)=O)c1` (centres undefined) here?
A: 50 µM

Q: For `NCCCCC(N)C(=O)NC(Cc1ccc(O)cc1)C(=O)NC(CCCCN)C(=O)O` (stereo not drawn) (H-Lys-Tyr-Lys-OH; configuration not given here), which EC50 is on record?
A: 75 µM

Q: With `Cc1ccc(/C(=C\CN2CCCC2)c2ccccn2)cc1` as the compound, how does the EC50 read?
A: 50 µM

Q: For `CCN1C[C@@]2(COC)C3[C@@H](OC)[C@H]4[C@@H]1[C@]3(C(OC)C[C@H]2O)C1C[C@@]2(O)[C@H](OC(=O)c3ccccc3)C1[C@]4(OC(C)=O)[C@@H](O)[C@@H]2OC` (some centres undefined), which EC50 is on record?
A: 50 µM

Q: With `NC(N)=O` as the compound, how does the EC50 read?
A: 75 µM

Q: `Cc1ccc(C(=O)C(C)CN2CCCCC2)cc1` (centres undefined) was tested. Which EC50 did it give?
A: 50 µM

Q: For `CO/N=C(\C(=O)NC1C(=O)N2C(C(=O)O)=C(CSc3nc(=O)c(O)nn3C)CS[C@H]12)c1csc(N)n1` (some centres undefined), which EC50 is on record?
A: 75 µM

Q: `O=C1NCC2(CCN(CCc3ccccc3)CC2)O1` was tested. Which EC50 did it give?
A: 50 µM

Q: `O=C(O)c1ccccc1OP(=O)(O)O` was tested. Which EC50 did it give?
A: 75 µM

Q: How did the EC50 turn out when `c1ccc2c(CC3=NCCN3)cccc2c1` was run?
A: 50 µM

Q: For `CCn1cc(C(=O)O)c(=O)c2cc(F)c(N3CCNCC3)cc21`, which EC50 is on record?
A: 75 µM

Q: `Cn1nnnc1SCC1=C(C(=O)O)N2C(=O)C(NC(=O)C(OC=O)c3ccccc3)C2SC1` (centres undefined) was tested. Which EC50 did it give?
A: 50 µM
